PMC9118996, “Directed evolution of Zymomonas mobilis sugar facilitator Glf to overcome glucose inhibition” (Journal of Industrial Microbiology & Biotechnology, 2021)

Target: T1, Glf (Zymomonas mobilis sugar / glucose facilitator) (Zymomonas mobilis, UniProt P21906)
T1 construct: full-length glf coding region with 20 bp native flanks in pTrc99A (pGlfwt), no tag told; expressed in E. coli W derivatives EG29 and EG51A lacking glucose and xylose uptake
T1 sequence (P21906 1-473): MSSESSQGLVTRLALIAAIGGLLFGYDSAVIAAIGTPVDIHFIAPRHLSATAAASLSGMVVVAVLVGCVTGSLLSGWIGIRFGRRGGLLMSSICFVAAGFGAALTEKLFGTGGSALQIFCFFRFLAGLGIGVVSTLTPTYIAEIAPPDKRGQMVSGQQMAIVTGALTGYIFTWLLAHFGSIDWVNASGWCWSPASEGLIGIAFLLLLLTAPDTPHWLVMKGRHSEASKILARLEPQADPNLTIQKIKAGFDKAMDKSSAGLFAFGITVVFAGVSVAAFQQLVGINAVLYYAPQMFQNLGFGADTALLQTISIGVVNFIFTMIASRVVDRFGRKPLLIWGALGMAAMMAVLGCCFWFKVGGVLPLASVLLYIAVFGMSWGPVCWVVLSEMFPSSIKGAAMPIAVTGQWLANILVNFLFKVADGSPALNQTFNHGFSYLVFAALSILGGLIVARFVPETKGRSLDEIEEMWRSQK
Assay: xylose utilization in fermentation of transport-deficient E. coli with Glf vs empty vector (HPLC)
Assay type: cell-based, Escherichia coli
Settings: E. coli EG51A (EG29 glk-), 34 g/l xylose alone, pH 7.0, 37 °C, 10 µM IPTG; facilitated uptake; whole-cell read-out

For `OC1OC[C@@H](O)[C@H](O)[C@H]1O` (stereo partly drawn) [D-xylose], the “xylose utilization in fermentation of transport-deficient E. coli with Glf vs em” value was “EG51A transformed with pGlfwt showed much improved xylose utilization compared to EG51A with empty vector”.
